Results: article PMC4619319, “A potent anti-inflammatory peptide from the salivary glands of horsefly” (Parasites & Vectors, 2015)

How the values were obtained:
IL-1β production = assay: LPS-stimulated IL-1β production in peritoneal macrophages (ELISA); assay type: cell-based, mouse; conditions: 20 μg/mL peptide, 100 ng/mL LPS, 6 h
Procedure: (§1) Cells were incubated with peptides (0, 5, 10, and 20 μg/mL) with or without 100 ng/mL LPS (from E. coli 0111:B4, Sigma-Aldrich, USA) for 6 h. After treatment, culture medium was collected for TNF-α, IL-1β and IL-6 quantification using enzyme-linked immunosorbent assay (ELISA) kits (Dakewei, China). Cells were washed with ice-cold PBS and lysed by Trizol reagent (Life Tech, USA). Total RNA was extracted for cDNA synthesis to quantify TNF-α, IL-1β and IL-6 transcription levels by qPCR as described in qPCR section.

[1] = test system: mouse peritoneal macrophages; conditions: CCK-8, 24 h, concentration as high as 200 μg/mL
Procedure: (§2) Mouse peritoneal macrophages were prepared according to previous method. Brewer thioglycollate medium (3 %, w/v, Sigma-Aldrich, USA) was intraperitoneally injected to C57BL/6 mouse. After 3 days, the mouse was euthanized and intraperitoneally injected with 20 mL RPMI-1640 medium to collect peritoneal macrophages. RAW264.7 cells were cultured in RPMI 1640 medium (10 % FBS, 100 U/mL penicillin and 100 μg/mL streptomycin, Gibco, USA) at 37 °C humidified with 5 % CO2. Mouse macrophages, peritoneal macrophages and RAW264.7 cells, were seeded in a 96-well (2 × 10^4 cells/well) plate, and cultured in RPMI 1640 medium (100 μL) supplemented with 2 % FBS, 100 U/mL penicillin and 100 μg/mL streptomycin (Gibco, USA) at 37 °C in a humidified 5 % CO2 incubator. The cytotoxicity of cecropin-TY1 against mouse macrophages was determined by Cell Counting Kit-8 assay (CCK-8) following the kit instruction. In brief, serial 2-fold peptide dilutions were added to each well, and control wells received the same volume of phosphate-buffered solution (PBS, 8 g/L NaCl, 0.2 g/L KCl, 0.2 g/L KH2PO4, 2.89 g/L Na2HPO4 · 12H2O, pH 7.4). After 24-h incubation, CCK-8 solution (10 μL/well) was added and incubated for an additional 4 h. The absorbance at 450 nm was monitored on a microplate reader (Epoch Etock, BioTek, USA).

RAW264.7 cells = conditions: CCK-8, 24 h, concentration as high as 200 μg/mL
Procedure: as §2

P-JNK1 = assay: Western blot, LPS-induced P-JNK1 in peritoneal macrophages; assay type: cell-based, mouse; conditions: 20 μg/mL peptide, 100 ng/mL LPS, 30 min, band density ratio to β-actin
Procedure: (§3) Cells were treated with different concentrations of cecropin-TY1 (0, 5, 10, and 20 μg/mL) in the presence or absence of 100 ng/mL LPS (from E. coli 0111:B4, Sigma-Aldrich, USA). After 30-min incubation, cells were washed twice with ice-cold PBS and lysed with RIPA lysis buffer (Beyotime, China) on ice for 30 min according to our previous method. Protein concentration was quantified by BCA Protein Assay Kit (Thermo, Germany). About 40 μg protein was separated on a 10 % SDS-PAGE gel and transferred to a polyvinylidene difluoride membrane. The membrane was blocked by incubating with 5 % BSA (BD, USA) dissolved in Tris-buffered solution Tween-20 (TBST, 2.42 g/L Trisbase, 8 g/L NaCl, 0.1 % Tween 20, pH 7.6) for 2 h at room temperature. The membrane was then incubated with primary antibodies against ERK, phospho-ERK, p38, phospho-p38, JNK, phospho-JNK, phospho-IκBα, NF-κB p65 and phospho-NF-κB p65 (1:2000, Cell Signaling Technology, USA) and GAPDH/β-actin (1:5000, Santa Cruz Biotechnology, USA) overnight at 4 °C, respectively. After incubation, the immunoblot was washed three times with TBST for 5 min each time, and incubated with secondary antibody (1:5000, Cell Signaling Technology, USA) at room temperature for 1 h. Signals were measured by enhanced chemiluminescence kit in a dark room after washing three times with TBST for 10 min each time (TIANGEN, China).

[2] = LPS neutralization, chromogenic end-point TAL assay; assay type: biochemical; conditions: LPS 1 μg/mL, 37 °C, 30 min
Procedure: (§4) Fluorescein isothiocyanate (FITC)-conjugated LPS (1 μg/mL, Sigma-Aldrich, USA) was excited at 480 nm and monitored the changes in the emission of FITC-LPS at 515 nm in the incubation of different concentrations of peptides (0, 12.5, 25, 50, 100 μg/mL). Peptides were dissolved in 10 mM phosphate buffer at pH 6.0. The interactions between peptides and LPS were further assessed by a quantitative Chromogenic End-point Tachypleus amebocyte lysate (TAL) assay kit (Xiamen Houshiji, China) following the kit instruction. Briefly, different concentrations of peptides (0, 12.5, 25, 50, 100 μg/mL) were incubated with LPS (1 μg/mL, Sigma-Aldrich, USA) at 37 °C for 30 min. After incubation, 100 μL TAL solution was added to 100 μL LPS-peptide mixtures in a pyrogen-free tube and incubated at 37 °C for 10 min. Then, LPS-peptide mixtures were added with pre-warmed substrate solution for additional 6-min incubation at 37 °C. Lastly, the absorbance at 545 nm was measured on a microplate reader (Epoch Etock, BioTek, USA). The percentages of LPS-neutralizing activity were calculated.

[3] = Dissociation of FITC-conjugated LPS aggregates (fluorescence); assay type: binding; conditions: FITC-LPS 1 μg/mL, 10 mM phosphate buffer pH 6.0, ex 480 nm / em 515 nm
Procedure: as §4

IL-1β transcription = assay: LPS-stimulated IL-1β transcription in peritoneal macrophages (qPCR); assay type: cell-based, mouse; conditions: 20 μg/mL peptide, 100 ng/mL LPS, 6 h
Procedure: qPCR was performed using SYBR green master mix (Takara, Japan) on a Realplex Mastercycler real-time PCR system (Eppendorf, Germany) according to the manufacturer’s instruction. The gene transcription levels were normalized to GAPDH or β-actinas as illustrated in figure legends and calculated by ΔΔCt method. The accuracy of qPCR results were checked by melting curve analysis. qPCR primers were listed in Additional file 1: Table S1.
as §1

P-p65 = assay: Western blot, LPS-induced P-p65 in peritoneal macrophages; assay type: cell-based, mouse; conditions: 20 μg/mL peptide, 100 ng/mL LPS, 30 min, band density ratio to β-actin
Procedure: as §3

P-ERK1 = assay: Western blot, LPS-induced P-ERK1 in peritoneal macrophages; assay type: cell-based, mouse; conditions: 20 μg/mL peptide, 100 ng/mL LPS, 30 min, band density ratio to β-actin
Procedure: as §3

P-p38 = assay: Western blot, LPS-induced P-p38 in peritoneal macrophages; assay type: cell-based, mouse; conditions: 20 μg/mL peptide, 100 ng/mL LPS, 30 min, band density ratio to β-actin
Procedure: as §3

With “GWLKKIGKKIERVGQNVRNAAISTLPIAQGAAGVAGALN-NH2 [cecropin-TY1, cecropin antimicrobial peptide from salivary glands of horsefly Tabanus yao, 39 residues, C-terminally amidated, synthesized]” the “reduction of LPS-induced IL-1β production” value (IL-1β production) was 63.4%, the “cytotoxicity (cell viability)” value [1] was “didn’t show any cytotoxicity” and the “cytotoxicity (cell viability)” value (RAW264.7 cells) was “didn’t show any cytotoxicity”. The “inhibition of LPS-induced P-JNK1 expression” value (P-JNK1) was 61.9%, the LPS neutralized ([2]; 12.5 μg/mL peptide) was 28.8% and the LPS neutralized ([2]; 25 μg/mL peptide) was 41.3%. For the same substance, the LPS neutralized ([2]; 50 μg/mL peptide) was 47.9%, the LPS neutralized ([2]; 100 μg/mL peptide) was 65.1% and the “increase of FITC-LPS fluorescence” value ([3]; 12.5 μg/mL peptide) was 33.4%. For the same substance, the “increase of FITC-LPS fluorescence” value ([3]; 25 μg/mL peptide) was 46.7%, the “increase of FITC-LPS fluorescence” value ([3]; 50 μg/mL peptide) was 63.3% and the “increase of FITC-LPS fluorescence” value ([3]; 100 μg/mL peptide) was 71.6%. For the same substance, the “attenuation of LPS-stimulated IL-1β transcription” value (IL-1β transcription) was 67.5%, the “inhibition of LPS-induced P-p65 expression” value (P-p65) was 55.9% and the “inhibition of LPS-induced P-ERK1 expression” value (P-ERK1) was 75.5%. The “inhibition of LPS-induced P-p38 expression” value (P-p38) was 46.4%.
